#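 Briefly, cells in 96-well plates were exposed to five compound concentrations for 48 h, and endpoints were estimated by linear interpolation. GI50 marks 50% less growth.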 The source made the active and inactive calls. Cut-off read from the data, not from the text of the source: active = GI50 up to about 1.1 µM and inactive = higher.
# Key:
# Experiment in all cases: inhibition of tumour cell growth, NCI panel, 48 h
# [1] = tested on: HL-60
# [2] = tested on: UACC-257
# [3] = tested on: CAKI-1
# [4] = tested on: CCRF-CEM
# [5] = tested on: RPMI-8226
# [6] = tested on: TK-10
# [7] = tested on: NCI/ADR-RES
# [8] = tested on: COLO 205
# [9] = tested on: DU-145
# [10] = tested on: SW-620
# [11] = tested on: IGROV-1
# [12] = tested on: A549
# [13] = tested on: 786-0
# [14] = tested on: HCT-15
# [15] = tested on: KM12
# [16] = tested on: EKVX
# [17] = tested on: UO-31
# [18] = tested on: T47D
# [19] = tested on: M14
# [20] = tested on: SK-MEL-2
# [21] = tested on: HOP-92
# [22] = tested on: ACHN
# [23] = tested on: MDA-N
# [24] = tested on: LOX IMVI
# [25] = tested on: Hs-578T
# [26] = tested on: U-251
# [27] = tested on: K562
# [28] = tested on: HT-29
# [29] = tested on: SN12C
# [30] = tested on: SK-OV-3
# [31] = tested on: SK-MEL-28
# [32] = tested on: OVCAR-4
# [33] = tested on: NCI-H226
# [34] = tested on: SR
# [35] = tested on: HCT-116
# [36] = tested on: UACC-62
# [37] = tested on: OVCAR-5
# [38] = tested on: HCC 2998
# [39] = tested on: SNB-75
# [40] = tested on: SF-539
# [41] = tested on: NCI-H522
# [42] = tested on: A498
# [43] = tested on: MDA-MB-435
# [44] = tested on: MOLT-4
# [45] = tested on: OVCAR-3
# [46] = tested on: NCI-H460
# [47] = tested on: SF-268
# [48] = tested on: RXF 393
# [49] = tested on: MDA-MB-231
# [50] = tested on: NCI-H23
# [51] = tested on: SK-MEL-5
# [52] = tested on: SF-295
# [53] = tested on: Malme-3M
# [54] = tested on: SNB-19
# [55] = tested on: OVCAR-8
# [56] = tested on: HOP-62
# [57] = tested on: MCF7
# [58] = tested on: PC-3
compound,measurement,setting,value
O=c1[nH]nc(-c2ccccc2)n1Nc1ccccc1,GI50,[1],> 100 µM (inactive)
same,GI50,[2],> 100 µM (inactive)
same,GI50,[3],> 100 µM (inactive)
same,GI50,[4],> 100 µM (inactive)
same,GI50,[5],> 100 µM (inactive)
same,GI50,[6],> 100 µM (inactive)
same,GI50,[7],> 100 µM (inactive)
same,GI50,[8],> 100 µM (inactive)
same,GI50,[9],> 100 µM (inactive)
same,GI50,[10],> 100 µM (inactive)
same,GI50,[11],> 100 µM (inactive)
same,GI50,[12],> 100 µM (inactive)
same,GI50,[13],> 100 µM (inactive)
same,GI50,[14],> 100 µM
same,GI50,[15],> 100 µM (inactive)
same,GI50,[16],> 100 µM (inactive)
same,GI50,[17],> 100 µM (inactive)
same,GI50,[18],> 100 µM (inactive)
same,GI50,[19],> 100 µM (inactive)
same,GI50,[20],> 100 µM (inactive)
same,GI50,[21],> 100 µM (inactive)
same,GI50,[22],> 100 µM (inactive)
same,GI50,[23],> 100 µM (inactive)
same,GI50,[24],> 100 µM (inactive)
same,GI50,[25],> 100 µM (inactive)
same,GI50,[26],> 100 µM (inactive)
same,GI50,[27],> 100 µM (inactive)
same,GI50,[28],> 100 µM (inactive)
same,GI50,[29],> 100 µM (inactive)
same,GI50,[30],> 100 µM (inactive)
same,GI50,[31],> 100 µM (inactive)
same,GI50,[32],> 100 µM (inactive)
same,GI50,[33],> 100 µM (inactive)
same,GI50,[34],> 100 µM (inactive)
same,GI50,[35],> 100 µM (inactive)
same,GI50,[36],> 100 µM (inactive)
same,GI50,[37],> 100 µM (inactive)
same,GI50,[38],> 100 µM (inactive)
same,GI50,[39],> 100 µM (inactive)
same,GI50,[40],> 100 µM (inactive)
same,GI50,[41],> 100 µM (inactive)
same,GI50,[42],> 100 µM (inactive)
same,GI50,[43],> 100 µM (inactive)
same,GI50,[44],> 100 µM (inactive)
same,GI50,[45],> 100 µM (inactive)
same,GI50,[46],> 100 µM (inactive)
same,GI50,[47],> 100 µM (inactive)
same,GI50,[48],> 100 µM (inactive)
same,GI50,[49],> 100 µM (inactive)
same,GI50,[50],> 100 µM (inactive)
same,GI50,[51],> 100 µM (inactive)
same,GI50,[52],> 100 µM (inactive)
same,GI50,[53],> 100 µM (inactive)
same,GI50,[54],> 100 µM (inactive)
same,GI50,[55],> 100 µM (inactive)
Fc1ccc(C2(CCCN3CCc4[nH]c5cc(F)ccc5c4C3)OCCO2)cc1,GI50,[1],10.5 µM (inactive)
same,GI50,[2],4.71 µM (inactive)
same,GI50,[4],11.8 µM (inactive)
same,GI50,[5],10.7 µM (inactive)
same,GI50,[6],14.8 µM (inactive)
same,GI50,[7],20.7 µM (inactive)
same,GI50,[8],8.75 µM (inactive)
same,GI50,[9],14.7 µM (inactive)
same,GI50,[10],14.3 µM (inactive)
same,GI50,[11],20.1 µM (inactive)
same,GI50,[12],14.7 µM (inactive)
same,GI50,[13],13.9 µM (inactive)
same,GI50,[14],16.4 µM
same,GI50,[56],13 µM (inactive)
same,GI50,[15],13.3 µM (inactive)
same,GI50,[16],15.3 µM (inactive)
same,GI50,[17],3.33 µM (inactive)
same,GI50,[18],13.5 µM (inactive)
same,GI50,[19],2.53 µM (inactive)
same,GI50,[21],2.99 µM (inactive)
same,GI50,[22],11.4 µM (inactive)
same,GI50,[24],12.6 µM (inactive)
same,GI50,[25],3.92 µM (inactive)
same,GI50,[26],11.9 µM (inactive)
same,GI50,[27],4.18 µM (inactive)
same,GI50,[28],3.81 µM (inactive)
same,GI50,[29],16.7 µM (inactive)
same,GI50,[30],13.8 µM (inactive)
same,GI50,[31],12.6 µM (inactive)
same,GI50,[32],13.3 µM (inactive)
same,GI50,[33],19 µM (inactive)
same,GI50,[34],7.52 µM (inactive)
same,GI50,[35],11.5 µM (inactive)
same,GI50,[36],13.7 µM (inactive)
same,GI50,[37],2.89 µM (inactive)
same,GI50,[38],2.13 µM (inactive)
same,GI50,[39],12.1 µM (inactive)
same,GI50,[40],12 µM (inactive)
same,GI50,[42],14.3 µM (inactive)
same,GI50,[43],13.5 µM (inactive)
same,GI50,[44],6.67 µM (inactive)
same,GI50,[57],10.6 µM (inactive)
same,GI50,[46],10.4 µM (inactive)
same,GI50,[47],15.3 µM (inactive)
same,GI50,[48],13.5 µM (inactive)
same,GI50,[49],18.7 µM (inactive)
same,GI50,[50],16.2 µM (inactive)
same,GI50,[51],10.9 µM (inactive)
same,GI50,[52],13.9 µM (inactive)
same,GI50,[53],12.3 µM (inactive)
same,GI50,[54],11.1 µM (inactive)
same,GI50,[55],17.7 µM (inactive)
Fc1ccccc1-c1nn2c(C34CC5CC(CC(C5)C3)C4)nnc2s1,GI50,[2],> 100 µM (inactive)
same,GI50,[3],> 100 µM (inactive)
same,GI50,[4],> 100 µM (inactive)
same,GI50,[5],> 100 µM (inactive)
same,GI50,[7],> 100 µM (inactive)
same,GI50,[8],> 100 µM (inactive)
same,GI50,[9],> 100 µM (inactive)
same,GI50,[10],> 100 µM (inactive)
same,GI50,[11],> 100 µM (inactive)
same,GI50,[12],> 100 µM (inactive)
same,GI50,[13],> 100 µM (inactive)
same,GI50,[14],> 100 µM
same,GI50,[56],> 100 µM (inactive)
same,GI50,[16],> 100 µM (inactive)
same,GI50,[17],> 100 µM (inactive)
same,GI50,[18],> 100 µM (inactive)
same,GI50,[19],> 100 µM (inactive)
same,GI50,[20],> 100 µM (inactive)
same,GI50,[21],> 100 µM (inactive)
same,GI50,[22],> 100 µM (inactive)
same,GI50,[23],> 100 µM (inactive)
same,GI50,[24],> 100 µM (inactive)
same,GI50,[58],> 100 µM (inactive)
same,GI50,[25],> 100 µM (inactive)
same,GI50,[26],> 100 µM (inactive)
same,GI50,[27],> 100 µM (inactive)
same,GI50,[28],> 100 µM (inactive)
same,GI50,[29],> 100 µM (inactive)
same,GI50,[30],> 100 µM (inactive)
same,GI50,[31],> 100 µM (inactive)
same,GI50,[32],> 100 µM (inactive)
same,GI50,[33],> 100 µM (inactive)
same,GI50,[34],> 100 µM (inactive)
same,GI50,[35],> 100 µM (inactive)
same,GI50,[36],> 100 µM (inactive)
same,GI50,[37],> 100 µM (inactive)
same,GI50,[38],> 100 µM (inactive)
same,GI50,[39],> 100 µM (inactive)
same,GI50,[40],> 100 µM (inactive)
same,GI50,[41],> 100 µM (inactive)
same,GI50,[42],> 100 µM (inactive)
same,GI50,[43],> 100 µM (inactive)
same,GI50,[44],> 100 µM (inactive)
same,GI50,[45],> 100 µM (inactive)
same,GI50,[46],> 100 µM (inactive)
same,GI50,[47],> 100 µM (inactive)
same,GI50,[48],> 100 µM (inactive)
same,GI50,[49],> 100 µM (inactive)
same,GI50,[50],> 100 µM (inactive)
same,GI50,[51],> 100 µM (inactive)
same,GI50,[52],> 100 µM (inactive)
same,GI50,[53],> 100 µM (inactive)
same,GI50,[54],> 100 µM (inactive)
same,GI50,[55],> 100 µM (inactive)
